Test results from patent US6106805A, “Diagnostic composition containing an LH-RH antagonist for hysteroscopy” (Asta Medica Aktiengesellschaft, priority 1996, dated 2000).
Non-standard residues stand in square brackets, D forms with d. Residues, ends and D or L forms follow the SMILES beside them. dPhe(4-Cl) = N[C@H](Cc1ccc(Cl)cc1)C(=O)O; d2Nal = N[C@H](Cc1ccc2ccccc2c1)C(=O)O; dCit = NC(=O)NCCC[C@@H](N)C(=O)O; d3Pal = N[C@H](Cc1cccnc1)C(=O)O

Key:
[1] = comparison with existing therapies; cited from earlier work
endometrium = experiment: Clinical experiment: endometrium measured by ultrasonics during cetrorelix pamoate treatment; type: in vivo, human
Protocol: (§1) Injection of 60 mg of cetrorelix on days 2 and 28 of the menstrual cycle.

E2 = experiment: Clinical experiment: E2 level during cetrorelix pamoate treatment; type: in vivo, human
Protocol: as §1

myoma = experiment: Hysteroscopic and laparoscopic myoma resection after cetrorelix therapy; type: in vivo, human; details: 2 months after beginning the cetrorelix therapy
Protocol: Treatment of a patient with uterine fibrosis, which was operated on. Injection of 60 mg of cetrorelix on days 2 and 28 of the menstrual cycle.

[2] = Tolerability of premedication, comparison with existing therapies; type: in vivo, human; details: short treatment period of from 7 to 10 days
[3] = Day 14 after 1st injection 60 mg
[4] = Day 21 after 1st injection 60 mg
[5] = Day 28, day of 2nd injection 60 mg

SMILES	side effects / drawbacks of existing therapies [1]	endometrial growth during the treatment (endometrium; 60 mg on days 2 and 28 of the menstrual cycle, measured by ultrasonics)	Endometrium (endometrium; Day 7 after 1st injection 60 mg, patient with uterine fibrosis)	Endometrium (endometrium; [3])	Endometrium (endometrium; [4])	Endometrium (endometrium; [5])	Endometrium (endometrium; Day 42, after 2 injections of 60 mg (Day 0, Day 28))	Endometrium (endometrium; Day 55, end of the study, after 2 injections of 60 mg)	onset of decrease of the thickness of the endometrial layer (endometrium; after injecting)	E2 (E2; Day 0, day of 1st injection 60 mg (baseline))	E2 (E2; Day 7 after 1st injection 60 mg)	E2 (E2; [3])	E2 (E2; [4])	E2 (E2; [5])	E2 (E2; Day 42, after 2 injections of 60 mg)	E2 (E2; Day 55, end of the study)	E2 (E2; Day of operation (07.05.96))	blood loss at hysteroscopic and laparoscopic myoma resection (myoma)	side effects [2]
C#C[C@]1(O)CC[C@H]2[C@@H]3CCC4=Cc5oncc5C[C@]4(C)[C@H]3CC[C@@]21C [Danazol]	acne, hirsutism and increase in weight																		
CC(=O)N[C@H](Cc1ccc2ccccc2c1)C(=O)N[C@H](Cc1ccc(Cl)cc1)C(=O)N[C@H](Cc1cccnc1)C(=O)N[C@@H](CO)C(=O)N[C@@H](Cc1ccc(O)cc1)C(=O)N[C@H](CCCNC(N)=O)C(=O)N[C@@H](CC(C)C)C(=O)N[C@@H](CCCNC(=N)N)C(=O)N1CCC[C@H]1C(=O)N[C@H](C)C(N)=O [cetrorelix pamoate] (Ac-[d2Nal][dPhe(4-Cl)][d3Pal]SY[dCit]LRP[dA]-NH2)		did not exhibit any growth	2 mm	flat/even	3.1 mm	flat/even	flat/even	flat/even	begins to decrease immediately	25 pg/mL	< 5 pg/mL	17 pg/mL	40 pg/mL	88 pg/mL	25 pg/mL	73 pg/mL	114 pg/mL	without any significant blood loss	no side effects
